US20040071687A1, “Adult stem cell recruitment” (priority 2002, published 2004)

What was measured:
[1] = system: white blood cells and hematopoietic progenitors (CFU-Cs); assay: Mobilization of white blood cells and progenitors (peripheral blood analysis, CFU-C); format: in vivo, mice; settings: for mobilization of mature white blood cells and hematopoietic progenitors (CFU-Cs): plasma elevation in MMP-9+/+ mice, but not in MMP-9−/− mice
Method: (§1) Mobilization of bone marrow-derived cells by adenovirus delivered factors. […] The vector was injected i.v. as a single dose. Recombinant G-CSF (R&D Systems, MN) was administered subcutaneously daily from day 0-5 at 50 μg/kg body weight. Recombinant murine KitL (peproTech, NJ) was injected s.c. twice a day at 100 or 200 μg/kg body weight.
Peripheral blood analysis. Blood was collected with capillary pipettes by retro-orbital bleeding and WBC counts were determined by using a hemocytometer. Peripheral blood mononuclear cells (PBMCs) were isolated from heparinized blood after centrifugation over a discontinuous gradient using Lympholyte-M (Cedarlane, Ontario, Canada).
Progenitor assay. Peripheral blood mononuclear cells (10^5) were plated in Iscove's modified Dulbecco's medium (IMDM) containing 1.2% methylcellulose (Fisher Scientific, NJ), 30% FBS, 5×10^−3M 2-mercaptoethanol 2 mM L-glutamine, 0.5 mM hemin (Sigma), murine KitL (20 ng/ml), human erythropoietin (6U/ml) and murine IL-3 (50 ng/ml). Colonies (>50 cells) were scored after 7 days (37° C., 5% CO2).

[2] = system: lethally irradiated syngeneic mice; assay: Bone marrow repopulating assay with mobilized PBMCs; format: in vivo; settings: for long-term engraftment of lethally irradiated syngeneic mice transplanted with mobilized PBMCs: PBMCs from SCID mice given AdSDF-1, AdVEGF or G-CSF, no MPI, n=12
Method: Bone marrow repopulating assay. Chemo/cytokine-mobilized PBMCs from SCID mice treated with/without MPI were collected on day 7. PBMCs from G-CSF-treated MMP-9^−/− and MMP-9^+/+ mice were collected on day 5. Mobilized PBMCs (10^5) were injected into lethally irradiated syngeneic animals (9.5 Gy). Survival was monitored.

[3] = system: MS-5 murine stromal cells; assay: Release of sKitL from stromal cell line cultures; format: cell-based; settings: MS-5 cells, serum-free medium, 24 hours
Method: Stromal cell line cultures. […] Immunoassay for chemokines and cytokines. Plasma levels of SDF-1, VEGF, and sKitL were measured using commercially available ELISA (R&D Systems).

human CD34+ cells = assay: In vitro transmigration through reconstituted basement membranes (Matrigel transwell); format: cell-based; settings: for migration of CD34+ cells: Matrigel-coated transwell, SDF-1 100 ng/ml in lower chamber, inhibitor in both chambers (CGS 27023A 1 nM; 5-phenyl-1,10-phenanthroline 1 mM)
Method: Substrate zymography. Supernatants from human MACS-isolated CD34^+ (5×10^3) cells were collected after overnight incubation in serum-free medium with/without SDF-1 (150 ng/ml R&D-Systems) or VEGF (50 ng/ml, PeproTech). MMP activity was determined by gelatin zymography (Lane et al., 2000).
In vitro transmigration through reconstituted basement membranes. […] CD34^+ cells were added to 8 μm pore Matrigel-coated (BD) transwell inserts (Costar, Cambridge Mass.). […] Transmigrated cells were quantified, placed in a clonogenic assay and in long-term cultures to measure the number of CAFC and LTC-IC (Jo et al., 2000).

[4] = system: lethally irradiated syngeneic recipients; assay: CFU-S assay; format: in vivo; settings: chemokine/cytokine-treated SCID mice given metalloproteinase inhibitor
Method: CFU-S assay. Mobilized peripheral blood mononuclear cells (10^5/mouse) of chemokine-treated SCID mice were injected i.v. into lethally irradiated syngeneic recipients (9 Gy). Spleens were removed 12 days later and fixed in Bouin's solution. The number of macroscopic spleen colonies was scored.

[5] = system: MMP-9−/− and MMP-9+/+ mice; assay: 5-FU myelosuppression: survival and hematopoietic recovery
Method: Administration of 5-FU. MMP-9^−/− and MMP-9^+/+ mice were injected with the cell cycle cytotoxic agent 5-fluorouracil (5-FU) to deplete cycling hematopoietic cells. In particular, 250 mg/kg body weight 5-FU (Pharmacia & Upjohn Company) was administered intravenously (i.v.). At specified time points, mice were sacrificed. Femurs were flushed and bone marrow cells were used for cell cycle analysis or subjected to magnetic bead isolation (MACS) (Miltenyi Biotec). Lineage-negative bone marrow cells were isolated by MACS after labeling the cells with a depletion cocktail of lineage-specific monoclonal antibodies (mAbs), including CD5, CD45R, CD11b, Gr-1, TER119, 7/4 (Stem Cell Technology, Canada). Lin^− cells were MACS isolated with mAb against Sca-1. […] For cell cycle analysis whole bone marrow cells of MMP-9^−/− and MMP-9^+/+ mice were labeled with Sca-1-FITC. Lin^−Sca-1^+bone marrow cells were labeled with c-Kit-FITC. Labeled bone marrow cells and Lin^−Sca-1^+cells were fixed in ice-cold ethanol for 30 min. After RNAase treatment (Sigma, MO), cells were stained with propidium iodide (Molecular-Probes, Oregon). The DNA content of Sca-1 and Lin^−Sca-1^+c-Kit^+ cells was determined by FACS (Coulter flow cytometer). […]
Peripheral blood analysis. Blood was collected with capillary pipettes by retro-orbital bleeding and WBC counts were determined by using a hemocytometer. […]

Sca-1+ bone marrow cells = assay: Cell cycle analysis of bone marrow Sca-1+ cells after 5-FU; format: in vivo, mice
Method: Administration of 5-FU. MMP-9^−/− and MMP-9^+/+ mice were injected with the cell cycle cytotoxic agent 5-fluorouracil (5-FU) to deplete cycling hematopoietic cells. In particular, 250 mg/kg body weight 5-FU (Pharmacia & Upjohn Company) was administered intravenously (i.v.). At specified time points, mice were sacrificed. Femurs were flushed and bone marrow cells were used for cell cycle analysis or subjected to magnetic bead isolation (MACS) (Miltenyi Biotec). Lineage-negative bone marrow cells were isolated by MACS after labeling the cells with a depletion cocktail of lineage-specific monoclonal antibodies (mAbs), including CD5, CD45R, CD11b, Gr-1, TER119, 7/4 (Stem Cell Technology, Canada). Lin^− cells were MACS isolated with mAb against Sca-1. […] For cell cycle analysis whole bone marrow cells of MMP-9^−/− and MMP-9^+/+ mice were labeled with Sca-1-FITC. Lin^−Sca-1^+bone marrow cells were labeled with c-Kit-FITC. Labeled bone marrow cells and Lin^−Sca-1^+cells were fixed in ice-cold ethanol for 30 min. After RNAase treatment (Sigma, MO), cells were stained with propidium iodide (Molecular-Probes, Oregon). The DNA content of Sca-1 and Lin^−Sca-1^+c-Kit^+ cells was determined by FACS (Coulter flow cytometer).

sKitL = assay: Plasma sKitL by ELISA after adenoviral vector or cytokine treatment; format: in vivo; settings: MMP-9+/+ mice, five days after treatment
Method: as §1
Immunoassay for chemokines and cytokines. Plasma levels of SDF-1, VEGF, and sKitL were measured using commercially available ELISA (R&D Systems).

MMP-9 = assay: Immunohistochemistry for MMP-9 in bone marrow sections; format: in vivo; settings: wild type mice; SDF-1 and VEGF by adenoviral vector, G-CSF recombinant
Method: Immunohistochemistry. Bone marrow sections were deparaffinized, rehydrated through an alcohol series immersed in 0.1% H2O2 and blocked using an Avidin and Biotin blocking kit (Vector, Burlingame, Calif.). For MMP-9 staining, the M.O.M. immunodetection kit (Vector) was used as recommended. Sections were incubated with MMP-9 mAb (clone 7-11C, Oncogene, MA) for 30 min, washed in PBS, incubated with a biotinylated horse anti-mouse IgG and incubated for 5 min with A&B reagents (Vector). Von Willebrand Factor (vWF) immunohistochemistry was performed on deparaffinized sections, treated with 3% H2O2, incubated with 0.05% Pronase E (Sigma). Sections were stained with anti-human vWF/HRP (Dako). Sections were developed with 3,3′-diaminobenzidine substrate and counterstained with eosin and hematoxylin.

[6] = system: circulating endothelial progenitors (CEPs); assay: Endothelial progenitor assay (CFU-EC, VEGFR2+ cells); format: in vivo; settings: wild type mice, elevated plasma levels
Method: Endothelial progenitor assay. Circulating bone marrow-derived CEPs were quantified by colony forming unit-endothelial cell (CFU-EC) as previously described (Hattori et al. 2001a). Mobilized PBMCs were cultured in M199 media (GIBCO-BRL, Gaithersburg, Md.) supplemented with 20% FBS (HyClone, UT), ECGF (30 μg/ml), human FGF-basic (Sigma) and heparin. After 5 weeks of culture, adherent cells were scored for colonies (>10 cells). Endothelial colonies were identified by metabolic uptake of DiI-Acetylated-LDL (1 μg/ml; PerImmune Inc, Rockville, Md.) at 37° C. for 5 hours, and visualized fluorescence microscopy. The number of VEGFR2^+ cells was quantified by FACS using a Cy2-labeled mAb to VEGFR2 (clone DC101, ImClone, NY), (Hattori et al. 2001a).

Molecule: COc1ccc(S(=O)(=O)N(Cc2cccnc2)[C@@H](C(=O)NO)C(C)C)cc1 [CGS 27023A]
- white blood cell counts and chemokine-induced mobilization ([1]; MMP-9 competent mice (data not shown)): decreased white blood cell counts and blocked chemokine-induced mobilization
- time within which all recipient mice died ([2]; recipients of PBMCs from MPI-treated mice): ≤ 19 days
- release of sKitL [3]: blocked
- migration of CD34+ cells (human CD34+ cells): completely blocked
- mobilization of hematopoietic cells with short-term repopulating potential (CFU-S) [4]: completely blocked

Molecule: O=c1[nH]cc(F)c(=O)[nH]1 [5-FU, 5-fluorouracil]
- survival of 5-FU-treated mice ([5]; MMP-9+/+, mouse, in vivo, iv): all of the MMP-9^+/+ mice survived
- death of 5-FU-treated mice ([5]; MMP-9−/− mice, single i.v. dose, n=16): 72%
- total number of Sca-1+ cells in S-phase (Sca-1+ bone marrow cells; MMP-9+/+ mice, day 6 after 5-FU): 2.2±0.05 ×10^5/femur
- total number of Sca-1+ cells in S-phase (Sca-1+ bone marrow cells; MMP-9+/+ mice, day 10 after 5-FU): 11.5±0.3 ×10^5/femur
- total number of Sca-1+ cells in S-phase (Sca-1+ bone marrow cells; MMP-9−/− mice, day 6 after 5-FU): 1.0±0.03 ×10^5/femur
- total number of Sca-1+ cells in S-phase (Sca-1+ bone marrow cells; MMP-9−/− mice, day 10 after 5-FU): 2.1±0.04 ×10^5/femur

Molecule: c1ccc(-c2cc3cccnc3c3ncccc23)cc1 [5-phenyl-1,10-phenanthroline]
- migration of CD34+ cells (human CD34+ cells): completely blocked

Molecule: VEGF
- mobilization of mature white blood cells and hematopoietic progenitors (CFU-Cs) [1]: mobilized mature white blood cells
- long-term engraftment of lethally irradiated syngeneic mice transplanted with mobilized PBMCs [2]: 40%
- plasma sKitL levels compared to untreated animals (sKitL): increased plasma sKitL levels
- immunoreactive MMP-9 in bone marrow stromal and hematopoietic cells (MMP-9): increased immunoreactive MMP-9
- mobilization of circulating endothelial progenitors (CFU-EC, VEGFR2) [6]: increased the mobilization of circulating endothelial progenitors
- release of pro-MMP-9 and migration of human CD34+ progenitor and stem cells (human CD34+ cells; transwell migration assay, chemoattractant): stimulate the release of pro-MMP-9 and induce migration

B1: G-CSF: recombinant granulocyte colony stimulating factor (R&D Systems), s.c. daily day 0-5 (protein, UniProt P09919 31-207, looked up)
Granulocyte …: TPLGPASSLPQSFLLKCLEQVRKIQGDGAALQEKLVSECATYKLCHPEELVLLGHSLGIPWAPLSSCPSQALQLAGCLSQLHSGLFLYQGLLQALEGISPELGPTLDTLQLDVADFATTIWQQMEELGMAPALQPTQGAMPAFASAFQRRAGGVLVASHLQSFLEVSYRVLRHLAQP
- mobilization of mature white blood cells and hematopoietic progenitors (CFU-Cs) [1]: mobilized mature white blood cells
- survival of transplanted recipients ([2]; MMP-9+/+ mice, PBMCs obtained day 5, n=8/group): 100%
- day by which all mice died ([2]; MMP-9−/− mice treated with G-CSF, n=8/group): ~18 days
- long-term engraftment of lethally irradiated syngeneic mice transplanted with mobilized PBMCs [2]: 80%
- plasma sKitL levels compared to untreated animals (sKitL): increased plasma sKitL levels
- immunoreactive MMP-9 in bone marrow stromal and hematopoietic cells (MMP-9): increased immunoreactive MMP-9
